In ChEMBL document CHEMBL1150977, “A quantitative analysis of kinase inhibitor selectivity” (Nat Biotechnol, 2008):

What was measured:
[1] = biological target: T1, Serine/threonine-protein kinase TNNI3K (Homo sapiens, UniProt Q59H18)
T1 sequence (Q59H18 whole entry): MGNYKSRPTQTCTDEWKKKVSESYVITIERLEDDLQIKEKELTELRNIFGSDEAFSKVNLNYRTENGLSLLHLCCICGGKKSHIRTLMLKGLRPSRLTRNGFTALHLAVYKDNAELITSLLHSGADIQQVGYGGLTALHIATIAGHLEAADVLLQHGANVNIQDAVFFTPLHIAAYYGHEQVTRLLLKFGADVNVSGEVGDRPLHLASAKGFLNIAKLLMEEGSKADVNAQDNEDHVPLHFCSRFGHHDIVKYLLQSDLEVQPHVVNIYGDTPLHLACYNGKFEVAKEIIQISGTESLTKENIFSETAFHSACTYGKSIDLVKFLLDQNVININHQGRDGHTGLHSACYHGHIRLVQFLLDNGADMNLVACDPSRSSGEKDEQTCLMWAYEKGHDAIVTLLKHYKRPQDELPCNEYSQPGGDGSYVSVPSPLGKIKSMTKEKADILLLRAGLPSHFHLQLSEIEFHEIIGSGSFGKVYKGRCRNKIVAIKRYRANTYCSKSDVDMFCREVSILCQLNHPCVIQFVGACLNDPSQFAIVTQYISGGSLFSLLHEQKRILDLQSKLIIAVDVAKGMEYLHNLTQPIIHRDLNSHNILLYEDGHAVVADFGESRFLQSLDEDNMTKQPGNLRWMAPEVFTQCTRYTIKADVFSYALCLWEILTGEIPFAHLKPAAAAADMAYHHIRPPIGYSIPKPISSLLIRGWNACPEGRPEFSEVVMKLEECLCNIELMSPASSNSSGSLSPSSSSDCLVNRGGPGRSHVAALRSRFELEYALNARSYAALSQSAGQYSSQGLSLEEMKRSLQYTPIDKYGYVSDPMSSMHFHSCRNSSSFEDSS

[2] = biological target: T2, Serine/threonine-protein kinase D3 (Homo sapiens, UniProt O94806)
T2 sequence (O94806 whole entry): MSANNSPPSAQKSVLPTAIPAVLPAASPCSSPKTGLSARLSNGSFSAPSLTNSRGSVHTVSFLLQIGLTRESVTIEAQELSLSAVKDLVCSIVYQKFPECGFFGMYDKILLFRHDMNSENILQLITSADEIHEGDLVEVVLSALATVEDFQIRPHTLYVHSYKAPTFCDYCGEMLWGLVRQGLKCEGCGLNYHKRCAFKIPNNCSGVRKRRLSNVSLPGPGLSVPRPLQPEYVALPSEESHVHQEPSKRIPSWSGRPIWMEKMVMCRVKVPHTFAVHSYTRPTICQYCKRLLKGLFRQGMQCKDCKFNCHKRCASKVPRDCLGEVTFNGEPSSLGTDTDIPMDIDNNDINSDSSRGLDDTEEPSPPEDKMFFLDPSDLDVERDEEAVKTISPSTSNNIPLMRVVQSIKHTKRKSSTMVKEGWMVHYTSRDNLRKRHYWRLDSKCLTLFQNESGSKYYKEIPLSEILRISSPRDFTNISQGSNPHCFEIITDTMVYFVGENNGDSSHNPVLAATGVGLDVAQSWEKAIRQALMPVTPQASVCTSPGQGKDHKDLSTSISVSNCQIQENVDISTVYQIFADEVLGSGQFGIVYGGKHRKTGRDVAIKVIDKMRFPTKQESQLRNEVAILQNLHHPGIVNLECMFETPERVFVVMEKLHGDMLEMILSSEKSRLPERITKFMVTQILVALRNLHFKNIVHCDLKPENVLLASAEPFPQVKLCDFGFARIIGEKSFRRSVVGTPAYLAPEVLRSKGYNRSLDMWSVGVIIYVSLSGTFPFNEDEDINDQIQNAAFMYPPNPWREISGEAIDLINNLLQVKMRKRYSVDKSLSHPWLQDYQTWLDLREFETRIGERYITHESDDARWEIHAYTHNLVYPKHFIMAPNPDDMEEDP

[3] = biological target: T3, Tyrosine-protein kinase receptor TYRO3 (Homo sapiens, UniProt Q06418)
T3 sequence (Q06418 whole entry): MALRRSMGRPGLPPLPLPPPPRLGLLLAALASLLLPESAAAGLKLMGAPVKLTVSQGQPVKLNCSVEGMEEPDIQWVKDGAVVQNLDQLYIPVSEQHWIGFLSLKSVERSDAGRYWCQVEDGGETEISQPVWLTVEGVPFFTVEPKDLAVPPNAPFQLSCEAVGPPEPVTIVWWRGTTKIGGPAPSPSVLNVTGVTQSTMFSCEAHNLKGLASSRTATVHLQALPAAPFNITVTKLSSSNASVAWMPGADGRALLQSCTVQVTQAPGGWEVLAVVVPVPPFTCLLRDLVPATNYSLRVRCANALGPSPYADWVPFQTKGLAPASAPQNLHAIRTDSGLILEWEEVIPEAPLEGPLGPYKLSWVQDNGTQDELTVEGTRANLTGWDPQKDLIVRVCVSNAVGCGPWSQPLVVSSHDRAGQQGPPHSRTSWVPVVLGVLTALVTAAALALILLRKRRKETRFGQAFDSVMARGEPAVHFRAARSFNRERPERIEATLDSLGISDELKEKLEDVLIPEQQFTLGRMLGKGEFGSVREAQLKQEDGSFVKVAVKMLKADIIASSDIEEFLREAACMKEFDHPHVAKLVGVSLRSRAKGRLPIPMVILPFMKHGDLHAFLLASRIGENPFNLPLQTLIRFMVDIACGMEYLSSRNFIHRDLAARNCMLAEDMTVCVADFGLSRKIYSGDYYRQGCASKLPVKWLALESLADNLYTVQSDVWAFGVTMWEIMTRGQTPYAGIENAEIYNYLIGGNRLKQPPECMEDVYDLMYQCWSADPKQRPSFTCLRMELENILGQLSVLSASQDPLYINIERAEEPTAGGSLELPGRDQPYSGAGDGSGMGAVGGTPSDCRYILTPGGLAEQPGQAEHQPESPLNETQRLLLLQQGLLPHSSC

`COCC(=O)NC/C=C/c1ccc2ncnc(Nc3ccc(Oc4ccc(C)nc4)c(C)c3)c2c1` [CP-724714] gave a Kd [1] of over 10 µM, a Kd [2] of over 10 µM and a Kd [3] of over 10 µM.
`NC(=O)c1ccc(-c2nc(-c3ccc4c(c3)OCO4)c(-c3ccccn3)[nH]2)cc1` [SB-431542] showed a Kd [1] of over 10 µM and a Kd [3] of over 10 µM.
With `Nc1nc(Nc2ccc(S(N)(=O)=O)cc2)nn1C(=O)c1c(F)cccc1F` [JNJ-7706621] the Kd [1] was 1.4 µM and the Kd [3] was over 10 µM.
With `CCOc1cc2ncc(C#N)c(Nc3ccc(F)c(Cl)c3)c2cc1NC(=O)/C=C/CN(C)C` [PELITINIB] the Kd [1] was 7.2 µM and the Kd [2] was over 10 µM.
`Oc1ccc(-c2nc(-c3ccncc3)c(-c3ccc(F)cc3)[nH]2)cc1` [SB-202190] gave a Kd [1] of over 10 µM, a Kd [2] of over 10 µM and a Kd [3] of over 10 µM.
